Source: US7592308B2, “F3W variants of the lantibiotic mersacidin and its use” (priority 2004, dated 2009)
In brackets after ≈: the same amount, converted by molar mass. Where two headings read alike, the source gives them in different places. Square brackets hold non-standard residues; d marks the D form. Ends that are not written are not given here. Dha = C=C(N)C(=O)O

Assays:
[1] = system: S. aureus LT 1012-13; assay: MIC test, further organisms; type: cell-based, Staphylococcus aureus; conditions: Table 10; duplicate
Protocol: (§1) MIC tests were performed with some of the variants of Example 2 on a range of other organisms. The results are shown in Tables 9 and 10 (figures in μg/ml): […]

[2] = system: S. aureus Mu50; assay: MIC test, further organisms; type: cell-based, Staphylococcus aureus; conditions: Table 10; duplicate
Protocol: as §1

[3] = system: S. aureus COL; type: cell-based, Staphylococcus aureus
Protocol: as §1

[4] = system: E. faecium BM4147; assay: MIC test, further organisms; type: cell-based, Enterococcus faecium; conditions: Table 10; duplicate
Protocol: as §1

[5] = system: M. luteus 4698; type: cell-based, Micrococcus luteus
Protocol: (§2) A selection of the variants produced in Example 1 above were tested further for activity against a range of bacteria. Minimum inhibitory concentrations (MICs) for all organisms with the exception of Streptococcus pneumoniae were determined by two-fold serial antibiotic dilutions in Mueller-Hinton broth (MHB) supplemented with 50 μg/ml calcium as calcium chloride dihydrate. Minimum inhibitory concentrations (MICs) for S. pneumoniae were determined by two-fold serial antibiotic dilutions in Brain Heart Infusion (BHI) broth supplemented with 50 μg/ml calcium as calcium chloride dihydrate. Antimicrobial agent stock solutions were prepared and stored according to NCCLS standard M7-A6.
(§3) Actively growing broth cultures were diluted to contain […] by adjusting to an absorbance of 0.2-0.3 at 600 nm, equivalent to the McFarland 0.5 standard. They were then diluted a further 1:100 in broth. The assays were performed in duplicate in sterile 96-well microtitre plates in a total volume of 200 μl (160 μl broth, 20 μl antibiotic, 20 μl inoculum) in a concentration range from 64 μg/ml to 0.06 μg/ml. The 12th well of the microtitre plate contained no antimicrobial agent. Vancomycin was used as a reference antibiotic for quality control. Plates were incubated aerobically, shaking, for 18-20 hours at 37° C. with the MIC defined as the lowest concentration of drug that produced no visible growth.

[6] = system: E. faecalis 29212; assay: MIC, two-fold serial dilution in broth; type: cell-based, Enterococcus faecalis; conditions: Table 8A; MHB + 50 μg/ml calcium; duplicate
Protocol: as §2, §3

[7] = system: S. epidermidis 11047; type: cell-based, Staphylococcus epidermidis; conditions: Table 8B; MHB + 50 μg/ml calcium; duplicate
Protocol: as §2, §3

[8] = system: E. faecium 19579; assay: MIC, two-fold serial dilution in broth; type: cell-based, Enterococcus faecium; conditions: Table 8A; MHB + 50 μg/ml calcium; duplicate
Protocol: as §2, §3

[9] = system: E. faecium 7131121; assay: MIC, two-fold serial dilution in broth; type: cell-based, Enterococcus faecium; conditions: Table 8A; MHB + 50 μg/ml calcium; duplicate
Protocol: as §2, §3

[10] = system: S. aureus SH1000; type: cell-based, Staphylococcus aureus; conditions: Table 8A; MHB + 50 μg/ml calcium; duplicate
Protocol: as §2, §3

[11] = system: S. aureus R33; type: cell-based, Staphylococcus aureus; conditions: Table 8A; MHB + 50 μg/ml calcium; duplicate
Protocol: as §2, §3

[12] = system: S. pneumoniae R6; type: cell-based, Streptococcus pneumoniae; conditions: Table 8B; BHI broth + 50 μg/ml calcium; duplicate
Protocol: as §2, §3

[13] = system: S. pyogenes 16205; type: cell-based, Streptococcus pyogenes
Protocol: as §1

[14] = system: S. pyogenes 13608; type: cell-based, Streptococcus pyogenes
Protocol: as §1

[15] = system: S. aureus COL MRSA; type: cell-based, Staphylococcus aureus
Protocol: as §1

[16] = system: S. aureus CS; type: cell-based, Staphylococcus aureus
Protocol: as §1

[17] = system: S. aureus SG511; type: cell-based, Staphylococcus aureus
Protocol: as §1

[18] = system: S. aureus 1012-13 MRSA; type: cell-based, Staphylococcus aureus
Protocol: as §1

[19] = system: Micrococcus luteus ATCC4698; assay: Bioassay of culture supernatant against M. luteus; type: cell-based; conditions: aqueous phase of chloroform-extracted culture supernatant
Protocol: The cultures were assayed for production of mersacidin by HPLC and bioassay against Micrococcus luteus ATCC4698. Samples of production cultures (1 ml) were centrifuged at 14000 rpm for 10 minutes. Supernatants were decanted and used undiluted for HPLC and bioassay.
For bioassays, M.luteus was inoculated from frozen stock into 10 ml half-strength Muller-Hinton broth in a 50 ml conical flask, and incubated at 30C with shaking at 250 rpm for approximately 7 hours, 0.3 ml of this culture was used to inoculate 300 ml of Muller-Hinton agar which was poured into a bioassay plate. Wells (6 mm diameter) were made with a cork-borer. Samples of 50 μl of supernatants were added to these wells. The concentration of mersacidin in the samples was calculated by comparing the diameter of inhibition zones of samples against a range of concentrations of a pure mersacidin standard.
Chloramphenicol resistant colonies were selected and grown in 3 ml Tryptic Soy Broth at 30C for 24 hours, 250 rpm and 0.3 ml of these cultures were used to inoculate 7 ml of 2×BPM+300 mM glucose+chloramphenicol (20 mg/l). After five days of incubation at 30C and 250 rpm, a 1 ml sample was collected and centrifuged at 13000 rpm for 10 min, the supernatant was removed, extracted with 1 volume of chloroform and the aqueous phase used for bioassay and HPLC-MS analysis (see accompanying disclosure for method). […] These masses are consistent with production of the expected mature lantibiotic products.
The ligation mixture was used to transform E. coli DH10B (Invitrogen). Ampicillin resistant colonies were selected, grown in LB+ampicillin (100 mg/l) and plasmids were isolated and characterised by sequence analysis. Plasmid encoding the expected mutant (pNB2024) was used to transform E. coli ET12567 and the plasmid obtained from this strains was used to transform Bacillus sp. HIL Y-85,54728 E17A. Chloramphenicol resistant colonies were selected and grown in 3 ml Tryptic Soy Broth at 30C for 24 hours, 250 rpm and 0.3 ml of these cultures were used to inoculate 7 ml of 2×BPM+300 mM glucose+chloramphenicol (20 mg/l). […]

[20] = system: E. faecium 4147 VRE; type: cell-based, Enterococcus faecium
Protocol: as §1

[21] = system: E. faecium 4147-1; type: cell-based, Enterococcus faecium
Protocol: as §1

[22] = Table 8B, MHB + 50 μg/ml calcium, duplicate

Molecule | MIC S. aureus LT 1012-13 [1] | MIC S. aureus Mu50 [2] | MIC E. faecium BM4147 [4] | MIC E. faecalis 29212 [6] | MIC E. faecium 19579 [8] | MIC E. faecium 7131121 [9] | MIC S. aureus SH1000 [10] | MIC S. pneumoniae R6 [12] | MIC S. aureus COL ([3]; Table 10, duplicate) | antibiotic activity in bioassay against M. luteus [19] | also measured
C=C1NC(=O)C2NC(=O)[C@H](CC(C)C)NC(=O)C(NC(=O)[C@@H]3CSC(C)C(NC(=O)[C@H](Cc4ccccc4)NC(=O)C4NC(=O)[C@@H](N)CSC4C)C(=O)N[C@@H](CC(C)C)C(=O)N4CCC[C@H]4C(=O)NCC(=O)NCC(=O)N[C@@H](C)C(=O)NCC(=O)N[C@@H](C(C)C)C(=O)N3)C(C)SC[C@H](NC(=O)[C@H](CCC(=O)O)NC1=O)C(=O)N[C@@H]([C@@H](C)CC)C(=O)NC=CSC2C (some centres unmarked) [G9A] | >64, >64 μg/ml | >64, >64 μg/ml | >64, >64 μg/ml | >64, >64 μg/ml |  |  |  |  |  |  | MIC S. aureus COL ([3]; COL): 64, >64 μg/ml; MIC M. luteus 4698 [5, 22]: <4, <4 μg/ml
G10N: mersacidin variant (CTFTLPGGGNVCTLT[Dha]ECIC; thioether (positions not given here); not fully specified; UniProt P43683 49-68, looked up, variant G10N) |  |  |  | >64, >64 μg/ml | >64, >64 μg/ml | >64, >64 μg/ml | >64, >64 μg/ml | >64, >64 μg/ml |  |  | MIC S. epidermidis 11047 [7]: >64, >64 μg/ml; MIC S. aureus R33 [11]: >64, >64 μg/ml
G9R: mersacidin variant (CTFTLPGGRGVCTLT[Dha]ECIC; thioether (positions not given here); not fully specified; UniProt P43683 49-68, looked up, variant G9R) |  |  |  | >64, >64 μg/ml | >64, >64 μg/ml | >64, >64 μg/ml | >64, >64 μg/ml | >64, >64 μg/ml |  |  | MIC S. epidermidis 11047 [7]: >64, >64 μg/ml; MIC S. aureus R33 [11]: >64, >64 μg/ml
C=C1NC(=O)C2NC(=O)[C@H](CC(C)C)NC(=O)C(NC(=O)[C@@H]3CSC(C)C(NC(=O)[C@H](Cc4ccccc4)NC(=O)C4NC(=O)[C@@H](N)CSC4C)C(=O)N[C@@H](CC(C)C)C(=O)N[C@@H](Cc4c[nH]cn4)C(=O)NCC(=O)NCC(=O)NCC(=O)NCC(=O)N[C@@H](C(C)C)C(=O)N3)C(C)SC[C@H](NC(=O)[C@H](CCC(=O)O)NC1=O)C(=O)N[C@@H]([C@@H](C)CC)C(=O)NC=CSC2C (some centres unmarked) [P6H] | >64, >64 μg/ml | >64, >64 μg/ml | >64, >64 μg/ml | >64, >64 μg/ml | >64, >64 μg/ml | >64, >64 μg/ml |  | >64, 64 μg/ml | >64, >64 μg/ml |  | 
G9H: mersacidin variant (CTFTLPGGHGVCTLT[Dha]ECIC; thioether (positions not given here); not fully specified; UniProt P43683 49-68, looked up, variant G9H) | >64, >64 μg/ml | >64, >64 μg/ml | >64, >64 μg/ml | >64, >64 μg/ml |  |  |  |  | >64, >64 μg/ml |  | MIC M. luteus 4698 [5, 22]: <4, <4 μg/ml
C=C1NC(=O)C2NC(=O)[C@H](CC(C)C)NC(=O)C(NC(=O)[C@@H]3CSC(C)C(NC(=O)[C@H](Cc4c[nH]c5ccccc45)NC(=O)C4NC(=O)[C@@H](N)CSC4C)C(=O)N[C@@H](CC(C)C)C(=O)N4CCC[C@H]4C(=O)NCC(=O)NCC(=O)NCC(=O)NCC(=O)N[C@@H](C(C)C)C(=O)N3)C(C)SC[C@H](NC(=O)[C@H](CCC(=O)O)NC1=O)C(=O)N[C@@H]([C@@H](C)CC)C(=O)NC=CSC2C (some centres unmarked) [F3W, mersacidin F3W] |  |  |  |  |  |  |  |  |  | antibiotic activity comparable to mersacidin | MIC S. pyogenes 16205 [13]: 0.125 µg/mL (≈ 0.067 µM); MIC S. pyogenes 13608 [14]: 0.125 µg/mL (≈ 0.067 µM); MIC S. aureus COL MRSA [15]: 16 µg/mL (≈ 8.58 µM); MIC S. aureus CS [16]: 4 µg/mL (≈ 2.14 µM); MIC S. aureus SG511 [17]: 2 µg/mL (≈ 1.07 µM); MIC S. aureus 1012-13 MRSA [18]: 4 µg/mL (≈ 2.14 µM); MIC M. luteus 4698 [5]; 4698: 0.5 µg/mL (≈ 0.268 µM); MIC E. faecium 4147 VRE ([20]; 4147 VRE): 32 µg/mL (≈ 17.2 µM); MIC E. faecium 4147-1 ([21]; Table 9, 16 h): 32-16 h, μg/ml; MIC E. faecium 4147-1 ([21]; Table 9, 23 h): 64-23 h μg/ml
G8V: mersacidin variant, inactive in bioassay (CTFTLPGVGGVCTLT[Dha]ECIC; thioether (positions not given here); not fully specified; UniProt P43683 49-68, looked up, variant G8V) |  |  |  |  |  |  |  |  |  | inactive | 
C=C1NC(=O)C2NC(=O)[C@H](CC(C)C)NC(=O)C(NC(=O)[C@@H]3CSC(C)C(NC(=O)[C@H](Cc4ccccc4)NC(=O)C4NC(=O)[C@@H](N)CSC4C)C(=O)N[C@@H](CC(C)C)C(=O)N4CCC[C@H]4C(=O)NCC(=O)N[C@@H](C)C(=O)NCC(=O)NCC(=O)N[C@@H](C(C)C)C(=O)N3)C(C)SC[C@H](NC(=O)[C@H](CCC(=O)O)NC1=O)C(=O)N[C@@H]([C@@H](C)CC)C(=O)NC=CSC2C (some centres unmarked) [G8A, mersacidin G8A] |  |  |  |  |  |  |  |  |  | has antibiotic activity | MIC S. pyogenes 16205 [13]: 1 µg/mL (≈ 0.543 µM); MIC S. pyogenes 13608 [14]: 1 µg/mL (≈ 0.543 µM); MIC S. aureus COL MRSA [15]: 32 µg/mL (≈ 17.4 µM); MIC S. aureus CS [16]: 8 µg/mL (≈ 4.35 µM); MIC S. aureus SG511 [17]: 8 µg/mL (≈ 4.35 µM); MIC S. aureus 1012-13 MRSA [18]: 16 µg/mL (≈ 8.69 µM); MIC M. luteus 4698 [5]; 4698: 4 µg/mL (≈ 2.17 µM); MIC E. faecium 4147 VRE ([20]; Table 9, 16 h): 64-16 h, μg/ml; MIC E. faecium 4147 VRE ([20]; Table 9, 24 h): 128-24 h μg/ml; MIC E. faecium 4147-1 ([21]; 4147-1): 128 µg/mL (≈ 69.6 µM)
G8N: mersacidin variant (CTFTLPGNGGVCTLT[Dha]ECIC; thioether (positions not given here); not fully specified; UniProt P43683 49-68, looked up, variant G8N) | >64, >64 μg/ml | >64, >64 μg/ml | >64, >64 μg/ml | >64, >64 μg/ml | >64, >64 μg/ml |  | >64, >64 μg/ml | >64, >64 μg/ml | >64, >64 μg/ml |  | 
